# Experimental data as given in US20060121180A1, “Metallic structures incorporating bioactive materials and methods for creating the same” (Medlogics Device Corporation, priority 2001, published 2006).
# Key:
# [1] = Optical absorbance of elution bath from coated 316L stainless steel sample in 0.9% saline; format: physicochemical; settings: 1 cm2 316L stainless steel sample
# Description: Table 3 depicts several experiments following the general procedures outlined in example 1, each with one time point and for a new bioactive material. M is the difference in absorbance between an elution bath from the sample containing the respective bioactive material and the absorbance from a sample with pure coating (i.e. control). In this instance, a 1 cm2 medical grade 316L stainless steel sample was coated using the above mentioned process.
# M refers to the absorbance difference between coated with bioactive material and coated without bioactive material.
# [2] = Drug elution from coated stents into physiologic saline solution (spectrophotometric assay); format: physicochemical; settings: Bx Velocity (316L) and Smart (nitinol) stents with Ni-P coating, physiologic saline changed daily (FIGS. 6 and 7)
# Description: Coated stents were formed using the same basic electroless deposition procedure in Example 1. However, in this example, instead of foil substrates, Johnson and Johnson Bx velocity stents (stainless steel) and Johnson and Johnson Smart stents (nitinol) were used as substrates. Bioactive composite structures in the form of layers were formed on the stents.
# The amounts on the y-axis of the graphs represent the amount of bioactive material remaining on the stent after elution into a physiologic saline solution.
# A similar anodization process as was used in the stent examples as was again applied to the foil substrates. After coating, the coated stent was placed in a physiologic saline solution and the solution changed daily. On the indicated days, the stent coatings were anodized. The amount of bioactive material released in each case was determined using a spectrophotometric assay.
Compound,"ΔA (absorbance difference, coated with vs without bioactive material) ([1]; Time = 0, immediately after deposition)","ΔA (absorbance difference, coated with vs without bioactive material) ([1]; after seven days in 0.9% saline solution, characteristic absorbance wavelength in parentheses)",time over which appreciable amounts were released [2] [days]
heparin,0,2.4 (230 nm),
albumin,,,40
"O=c1[nH]cc(F)c(=O)[nH]1 [Fluorouracil, 5-fluorouracil]",,,40
